One experiment has as its system HIF-1α. The experiment in a line: HIF-1α transactivation assay in NIH-3T3-EPO-Luc fibroblast cells. Type of experiment: cell-based. The settings on record: 6 h stimulation. The procedure: To investigate the biological activities of the different compounds, HIF-1α transactivation assays were performed either in NIH-3T3-EPO-Luc cells (Table II) or in HaCaT-EPO-luc cells (FIG. 2). The NIH3T3-EPO-luc and HaCaT-EPO-luc cells have been stably transfected with the plasmid Epo-Luc plasmid. The EPO-Hypoxia Response Element (HRE)-luciferase reporter plasmid contains three copies of the HRE consensus sequence from the promoter of the erythropoietin gene fused to the luciferase gene. NIH3T3-EPO-luc cells were maintained at 37° C. in a humidified atmosphere containing 5% CO2 in DMEM supplemented with 10% fetal calf serum (FBS), and 1% (v/v) penicillin/streptomycin. DFX was purchased from Sigma-Aldrich (USA). Cells (1×10^4/well in 96 well plates) were seeded the day before the assay. […] After six hours of stimulation the cells were lysed in 25 mM Tris-phosphate pH 7.8, 8 mM MgCl2, 1 mM DTT, 1% Triton X-100, and 7% glycerol during 15 min at RT in a horizontal shaker. Luciferase activity is measured using a microplate luminometer (Berthold) following the instructions of the luciferase assay kit (Promega, Madison, Wis., USA).

The next experiment concerns 3NP-lesioned mice. Put plainly: 3-NP induced Huntington's disease model in mice. Type of experiment: in vivo, mouse. The procedure: Striatal neurodegeneration was induced in 16-week-old C57BL/6 male mice (Harlan Ibérica, Barcelona, Spain) by six intraperitoneal (i.p.) injections of 3-nitropropionic acid (3NP) (30 mg/kg; one injection each every 12 h prepared in PBS). 3NP-treated animals and the non-lesioned control group (injected with PBS) were used for pharmacological studies with Betulinic acid (30 mg/Kg) and compound VII (30 mg/Kg). Treatments consisted of 5 i.p. injections every 24 h with […] the test compounds or vehicle (10% DMSO plus 6.2% Tween 20 in saline buffer), with the first injection 24 h prior the first 3NP injection and the rest of doses 30 min before the injections of 3NP. Mice were subjected to behavioral tests for determining their neurological status. General locomotor activity, the hindlimb clasping and dystonia, and the truncal dystonia were evaluated. All behavioral tests were conducted prior to drug injections to avoid acute effects of the compounds under investigation. […] were euthanized 12 h after the last injection of 3NP. Once euthanized, animals were dissected and their brains were rapidly removed. The right hemisphere was used to dissect the striatum, which was quickly frozen in RNAlater (Sigma-Aldrich, Germany) to analyzed inflammatory markers were by Real Time PCR. The left hemisphere was fixed in fresh 4% paraformaldehyde (in 0.1M phosphate buffered-saline) for 48 hours at 4° C. and embedded in paraffin wax for histological analysis.
For this test, intoxicated mice with 3-Nitropropionic acid (3-NP) were used for determining microglia activation and astrogliosis including a Control with non-intoxicated mice (3NP, 3NP+BA and 3NP+Compound VII). Iba-1 and glial fibrillary acidic protein (GFAP) expression were determined by immunostaining of brain sections through the different group of mice. Quantification of the different markers was performed with Image J software.
Total RNA was isolated from striata (3NP model) using RNeasy Lipid Tissue Mini Kit (Qiagen, GmbH). The total amount of RNA extracted was quantitated by spectrometry at 260 nm and its purity from the ratio between the absorbance values at 260 and 280 nm. Genomic DNA was removed to eliminate DNA contamination. Single-stranded complementary DNA was synthesized from up to 1 μg of total RNA (pool from at least 3 animals per group) using iScript™ cDNA Synthesis Kit (Bio-Rad, Hercules, Calif., USA). The reaction mixture was kept frozen at −20° C. until enzymatic amplification. The iQ™ SYBR Green Supermix (Bio-Rad) was used to quantify mRNA levels for COX-2, IL-6, IL-1β, and iNOS. […] Expression levels were calculated using the 2^−ΔΔCt method.

For a further experiment, the system named is HFD mice. The experiment in a line: High fat diet (HFD) model of diabetes and metabolic pathologies in mice. The experiment is classed as in vivo, mouse. The conditions noted are these: 30 mg/kg i.p. every 24 h. On the procedure:
High-fat diet-fed mouse is a widely used model for impaired glucose tolerance (IGT) and type 2 diabetes. Eight-week-old male C57BL/6 mice (Charles River-France) were used for experiments. Mice were maintained under controlled conditions [12 h light/dark cycle; temperature 20° C. (±2° C.) and 40-50% relative humidity] with free access to tap water and standard rodent chow ad libitum. After 1 week of acclimatization, mice were divided into two groups and fed ad libitum with a standard diet—CD- (Code U8220G10R, SAFE Diets, Augy, France) or a High-Fat diet—HFD- (D12451; Research Diets, New Brunswick, N.J.) in order to induce obesity for 15 weeks (diet-induced obesity, DIO). In order to assess the potential beneficial metabolic effects of compound VII in this model of DIO, pharmacological administration of the compound (30 mg/kg body weight) was performed by intraperitoneal (i.p.) injection every 24 h from 12th to 15th week of diet exposure. Control animals received the corresponding vehicle injections (1:1:18 Ethanol:Cremophor:Saline).
To ensure the effectiveness of HFD feeding regimen and assess the efficacy of compounds in terms of amelioration of the metabolic phenotype, body composition analyses of fat and lean masses were performed by QMR (quantitative magnetic resonance) using the EchoMRI™ 700 analyzer (Houston, Tex., software v. 2.0). In this sense, MRI scans were taken in three time points during the experimental period: before starting diet exposure, after 12 week of feeding regimen (coinciding with start of treatment) and at the end of experimental procedures (on the 15th week of diet exposure). Additionally, five days before sacrifice, glucose tolerance test (GTT) was performed in overnight food-deprived mice. To this end, mice were injected intraperitoneally with 2 mg of glucose/g body weight and blood glucose was measured before and 30, 60 and 120 min after injection utilizing an Accu-Chek Advantage® (Roche) glucometer. At the end of the experiment, mice were sacrificed and blood samples were collected using EDTA-coated tubes and plasma stored at −80° C. Plasma triglycerides were measured using and enzymatic colorimetric kit (QCA, Barcelona, Spain).

A word on the EC50: it is the concentration giving half of the maximal effect.

Consider `C=C(C)[C@@H]1CC[C@]2(C(=O)NO)CC[C@]3(C)[C@H](CC[C@@H]4[C@@]5(C)CC[C@H](O)C(C)(C)[C@@H]5CC[C@]43C)[C@@H]12` [Compound VII, (3β) 3-Hydroxy-N-hydroxy-lup-20(29)-en-28-amide], for which the “Efficacy HIF-1α (IRA coefficient)” value in the experiment on HIF-1α (relative to 150 μM DFX) stood at 0.36. Moreover, the EC50 in the experiment on HIF-1α (Fibroblast, read-out: Potency EC50 HIF-1α) worked out at 4.81 µM. In the experiment with 3NP-lesioned mice (30 mg/kg, compared with 3NP+Vehicle), the “mRNA expression for COX-2, IL-1β, IL-6 and iNOS in striatum” value is “down regulated”. In the experiment with 3NP-lesioned mice (i.p., 30 mg/kg), the “clinical symptoms (behavioral score) induced by 3-NP intoxication” value is reported as “clearly alleviated the clinical symptoms” and the “reduction in Nissl-stained cells (neuronal death) in striatum caused by 3NP” value is “clearly prevented”. Moreover, the “3NP-induced microgliosis (Iba1) and astrogliosis (GFAP)” value in the experiment with 3NP-lesioned mice (i.p., immunohistochemistry) is “reduced 3NP-induced microgliosis and astrogliosis”. Moreover, in the experiment on HFD mice (3 weeks), the “glucose tolerance (GTT)” value is listed as “improved glucose tolerance” and the “plasma levels of triglycerides” value is reported as “normalize the plasma levels of triglycerides”. Besides, in the experiment on HFD mice (12th to 15th week), the adiposity entry is on record as “alleviated”, the “increase in Fat Mass” value is recorded as “alleviated” and the weight gain result is “alleviated weight gain”.

The values above are taken from US10766855B2, “Hydroxamate triterpenoid derivatives” (VIVACELL BIOTECHNOLOGY ESPANA S.L., priority 2016, dated 2020).
